Experimental findings from patent US8952163B2, “Substituted hydroxamic acids and uses thereof” (Millennium Pharmaceuticals, Inc., priority 2010, dated 2015) are described below.

The target of this test is T1, purified human HDAC6 (Homo sapiens, UniProt Q9UBN7).
T1 construct: purchased BPS Bioscience 5006
T1 sequence (Q9UBN7 1-1215): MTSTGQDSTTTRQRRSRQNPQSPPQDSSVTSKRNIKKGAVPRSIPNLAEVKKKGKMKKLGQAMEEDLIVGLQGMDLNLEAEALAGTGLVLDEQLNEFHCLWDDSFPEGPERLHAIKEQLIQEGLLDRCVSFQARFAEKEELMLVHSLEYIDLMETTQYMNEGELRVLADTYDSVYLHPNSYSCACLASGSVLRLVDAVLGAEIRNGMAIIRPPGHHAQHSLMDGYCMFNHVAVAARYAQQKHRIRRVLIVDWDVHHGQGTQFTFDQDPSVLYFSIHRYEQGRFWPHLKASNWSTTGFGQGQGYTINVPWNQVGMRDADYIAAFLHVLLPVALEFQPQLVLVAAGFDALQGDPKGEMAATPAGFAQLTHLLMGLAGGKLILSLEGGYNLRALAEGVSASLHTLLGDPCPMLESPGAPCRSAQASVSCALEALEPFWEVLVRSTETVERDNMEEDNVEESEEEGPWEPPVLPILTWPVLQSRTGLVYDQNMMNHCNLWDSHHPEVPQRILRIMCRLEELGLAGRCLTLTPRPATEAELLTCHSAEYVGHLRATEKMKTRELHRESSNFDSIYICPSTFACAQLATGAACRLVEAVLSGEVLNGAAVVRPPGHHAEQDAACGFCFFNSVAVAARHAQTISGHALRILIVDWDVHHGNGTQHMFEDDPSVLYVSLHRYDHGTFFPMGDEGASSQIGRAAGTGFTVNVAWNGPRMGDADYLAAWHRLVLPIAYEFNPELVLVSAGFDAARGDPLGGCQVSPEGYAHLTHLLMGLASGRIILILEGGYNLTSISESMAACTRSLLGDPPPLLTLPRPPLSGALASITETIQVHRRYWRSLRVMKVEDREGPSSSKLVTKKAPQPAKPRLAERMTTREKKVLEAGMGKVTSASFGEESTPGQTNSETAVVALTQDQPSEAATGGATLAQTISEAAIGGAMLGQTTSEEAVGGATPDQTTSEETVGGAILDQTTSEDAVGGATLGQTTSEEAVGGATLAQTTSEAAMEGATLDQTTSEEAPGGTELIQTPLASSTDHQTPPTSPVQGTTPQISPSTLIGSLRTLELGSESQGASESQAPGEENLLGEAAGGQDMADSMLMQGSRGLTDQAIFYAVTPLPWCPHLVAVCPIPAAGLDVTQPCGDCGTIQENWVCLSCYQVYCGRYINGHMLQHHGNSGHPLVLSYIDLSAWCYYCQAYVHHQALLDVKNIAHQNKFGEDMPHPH
Kind of test: HDAC6 Enzyme Assay. The format is biochemical. Conditions: test compound at 1.235 μM; substrate Ac-Arg-Gly-Lys(Ac)-AMC, 1 hour at 30° C.; read-out: Percent Inhibition at 1.235 μM. On the procedure: To measure the inhibition of HDAC6 activity, purified human HDAC6 (BPS Bioscience; Cat. No. 5006) is incubated with substrate Ac-Arg-Gly-Lys(Ac)-AMC peptide (Bachem Biosciences; Cat. No. I-1925) for 1 hour at 30° C. in the presence of test compounds or vehicle DMSO control. The reaction is stopped with the HDAC inhibitor trichostatin A (Sigma; Cat. No. T8552) and the amount of Arg-Gly-Lys-AMC generated is quantitated by digestion with trypsin (Sigma; Cat. No. T1426) and subsequent measurement of the amount of AMC released using a fluorescent plate reader (Pherastar, BMG Technologies) set at Ex 340 nm and Em 460 nm. Concentration response curves are generated by calculating the fluorescence increase in test compound-treated samples relative to DMSO-treated controls, and percentage inhibition values at a single concentration or enzyme inhibition (IC50) values are determined from those curves. One skilled in the art will appreciate that the values generated either as percentage inhibition at a single concentration or IC50 values are subject to experimental variation.
Broadly, the inhibition is the share of the control response that was lost under treatment. Regarding `CCc1cccc(CC)c1NC(=O)N1CCc2nc(C(=O)NO)ccc2C1` [Compound I-47, N^6-(2,6-diethylphenyl)-N^2-hydroxy-7,8-dihydro-1,6-naphthyridine-2,6(5H)-dicarboxamide], the inhibition at 1.235 µM is 34.3%.

Consider `O=C(NO)c1ccc2c(n1)CCN(C(=O)Nc1ccc(-c3ccccc3)s1)C2` [Compound I-54, N^2-hydroxy-N^6-(5-phenyl-2-thienyl)-7,8-dihydro-1,6-naphthyridine-2,6(5H)-dicarboxamide], for which the inhibition at 1.235 µM stood at 67.2%.

Regarding `O=C(NO)c1ccc2c(n1)CCN(C(=O)NCc1ccccc1)C2` [Compound I-25, N^6-benzyl-N^2-hydroxy-7,8-dihydro-1,6-naphthyridine-2,6(5H)-dicarboxamide], the inhibition at 1.235 µM turned out to be 60.4%. For the compound `CC(=O)N1CCc2nc(C(=O)NO)ccc2C1` [Compound I-2, 6-acetyl-N-hydroxy-5,6,7,8-tetrahydro-1,6-naphthyridine-2-carboxamide], the inhibition at 1.235 µM is 34.1%. On to `CC(C)(C)c1ccccc1NC(=O)N1CCc2nc(C(=O)NO)ccc2C1` [Compound I-40, N^6-(2-tert-butylphenyl)-N^2-hydroxy-7,8-dihydro-1,6-naphthyridine-2,6(5H)-dicarboxamide], for which the inhibition at 1.235 µM was determined as 50.4%. For `O=C(NO)c1ccc2c(n1)CCN(C(=O)c1cc3ccccc3s1)C2` [Compound I-49, 6-(1-benzothien-2-ylcarbonyl)-N-hydroxy-5,6,7,8-tetrahydro-1,6-naphthyridine-2-carboxamide], the inhibition at 1.235 µM came out at 94.1%.

As to `CCC(C)NC(=O)N1CCc2nc(C(=O)NO)ccc2C1` (stereo not shown) [Compound I-16, N^6-(sec-butyl)-N^2-hydroxy-7,8-dihydro-1,6-naphthyridine-2,6(5H)-dicarboxamide], the inhibition at 1.235 µM is 27.3%. The value for `O=C(NO)c1ccc2c(n1)CCN(C(=O)NC1CCCCC1)C2` [Compound I-17, N^6-cyclohexyl-N^2-hydroxy-7,8-dihydro-1,6-naphthyridine-2,6(5H)-dicarboxamide] was 41.2%; that for `O=C(NO)c1cnc2c(c1)CCN(C(=O)C13CC4CC(CC(C4)C1)C3)C2` [Compound I-15, 7-[1-adamantylcarbonyl]-N-hydroxy-5,6,7,8-tetrahydro-1,7-naphthyridine-3-carboxamide] was 95.6%; that for `CC1(C(=O)N2CCc3nc(C(=O)NO)ccc3C2)CCCCC1` [Compound I-19, N-hydroxy-6-[(1-methylcyclohexyl)carbonyl]-5,6,7,8-tetrahydro-1,6-naphthyridine-2-carboxamide] was 79.5%. Regarding `CC(C)(C)NC(=O)N1CCc2nc(C(=O)NO)ccc2C1` [Compound I-45, N^6-(tert-butyl)-N^2-hydroxy-7,8-dihydro-1,6-naphthyridine-2,6(5H)-dicarboxamide], the inhibition at 1.235 µM was 39%. For `CC(C)(C)c1ccc(C(=O)N2CCc3ncc(C(=O)NO)cc3C2)cc1` [Compound I-50, 6-(4-tert-butylbenzoyl)-N-hydroxy-5,6,7,8-tetrahydro-1,6-naphthyridine-3-carboxamide], the inhibition at 1.235 µM is 95.1%. With `O=C(NO)c1cnc2c(c1)CCN(C(=O)c1[nH]c3ccccc3c1-c1ccccc1)C2` [Compound I-37, N-hydroxy-7-[(3-phenyl-1H-indol-2-yl)carbonyl]-5,6,7,8-tetrahydro-1,7-naphthyridine-3-carboxamide], the inhibition at 1.235 µM worked out at 93.7%. Consider `CCCNC(=O)N1CCc2nc(C(=O)NO)ccc2C1` [Compound I-36, N^2-hydroxy-N^6-propyl-7,8-dihydro-1,6-naphthyridine-2,6(5H)-dicarboxamide], for which the inhibition at 1.235 µM was 26.5%.

Turning to `O=C(NO)c1cnc2c(c1)CN(C(=O)c1sc3ccccc3c1Cl)CC2` [Compound I-5, 6-[(3-chloro-1-benzothien-2-yl)carbonyl]-N-hydroxy-5,6,7,8-tetrahydro-1,6-naphthyridine-3-carboxamide], the inhibition at 1.235 µM turned out to be 93.4%. As for `Cc1onc(-c2ccccc2)c1NC(=O)N1CCc2nc(C(=O)NO)ccc2C1` [Compound I-43, N^2-hydroxy-N^6-(5-methyl-3-phenylisoxazol-4-yl)-7,8-dihydro-1,6-naphthyridine-2,6(5H)-dicarboxamide], the figure is 23.4%; as for `CC(C)(C)C(=O)N1CCc2ncc(C(=O)NO)cc2C1` [Compound I-30, 6-(2,2-dimethylpropanoyl)-N-hydroxy-5,6,7,8-tetrahydro-1,6-naphthyridine-3-carboxamide], 85%; as for `O=C(NO)c1ccc2c(n1)CCN(C(=O)NCCc1ccccc1)C2` [Compound I-55, N^2-hydroxy-N^6-(2-phenylethyl)-7,8-dihydro-1,6-naphthyridine-2,6(5H)-dicarboxamide], 58.3%. On to `COc1ccc(C(=O)N2CCc3ncc(C(=O)NO)cc3C2)cc1` [Compound I-32, N-hydroxy-6-(4-methoxybenzoyl)-5,6,7,8-tetrahydro-1,6-naphthyridine-3-carboxamide], for which the inhibition at 1.235 µM is 93%. As to `Cc1nc(C(=O)N2CCc3nc(C(=O)NO)ccc3C2)cs1` [Compound I-27, N-hydroxy-6-[(2-methyl-1,3-thiazol-4-yl)carbonyl]-5,6,7,8-tetrahydro-1,6-naphthyridine-2-carboxamide], the inhibition at 1.235 µM was 51.2%. In the case of `CC1(C(=O)N2CCc3cc(C(=O)NO)cnc3C2)CCCCC1` [Compound I-9, N-hydroxy-7-[(1-methylcyclohexyl)carbonyl]-5,6,7,8-tetrahydro-1,7-naphthyridine-3-carboxamide], the inhibition at 1.235 µM is 95.2%. For the compound `O=C(NO)c1cnc2c(c1)CCN(C(=O)c1ccc(Cl)cc1)C2` [Compound I-28, 7-(4-chlorobenzoyl)-N-hydroxy-5,6,7,8-tetrahydro-1,7-naphthyridine-3-carboxamide], the inhibition at 1.235 µM was 91.9%. Regarding `Cc1ccccc1NC(=O)N1CCc2nc(C(=O)NO)ccc2C1` [Compound I-8, N^2-hydroxy-N^6-(2-methylphenyl)-7,8-dihydro-1,6-naphthyridine-2,6(5H)-dicarboxamide], the inhibition at 1.235 µM turned out to be 40.4%.

Regarding `O=C(NO)c1ccc2c(n1)CCN(C(=O)Nc1ccccc1)C2` [Compound I-51, N^2-hydroxy-N^6-phenyl-7,8-dihydro-1,6-naphthyridine-2,6(5H)-dicarboxamide], the inhibition at 1.235 µM was determined as 63.4%. Take `COc1ccc(C(=O)N2CCc3nc(C(=O)NO)ccc3C2)cc1` [Compound I-35, N-hydroxy-6-(4-methoxybenzoyl)-5,6,7,8-tetrahydro-1,6-naphthyridine-2-carboxamide]: the inhibition at 1.235 µM stood at 67%. As to `Cn1cccc1C(=O)N1CCc2cc(C(=O)NO)cnc2C1` [Compound I-24, N-hydroxy-7-[(1-methyl-1H-pyrrol-2-yl)carbonyl]-5,6,7,8-tetrahydro-1,7-naphthyridine-3-carboxamide], the inhibition at 1.235 µM came out at 92.3%. As to `O=C(NO)c1ccc2c(n1)CCN(C(=O)c1[nH]c3ccccc3c1-c1ccccc1)C2` [Compound I-7, N-hydroxy-6-[(3-phenyl-1H-indol-2-yl)carbonyl]-5,6,7,8-tetrahydro-1,6-naphthyridine-2-carboxamide], the inhibition at 1.235 µM turned out to be 79%. As for `O=C(NO)c1cnc2c(c1)CCN(C(=O)c1cc3ccccc3o1)C2` [Compound I-18, 7-(1-benzofuran-2-ylcarbonyl)-N-hydroxy-5,6,7,8-tetrahydro-1,7-naphthyridine-3-carboxamide], the inhibition at 1.235 µM is 97.2%.
